The record followed here is ChEMBL document CHEMBL1150315, “Potent and orally bioavailable zwitterion GnRH antagonists with low CYP3A4 inhibitory activity” (Bioorg Med Chem Lett, 2008).

The nature of data set [1]: AUC in Sprague-Dawley rat at 10 mg/kg, po. The format is ADME, organism-based. On the set-up: dose 10 mg/kg, route oral. As to conditions: plasma.
Data set [2] is described as follows: Oral bioavailability in Sprague-Dawley rat at 10 mg/kg. It counts as ADME, organism-based. Particulars: in vivo.
Data set [3] is described as follows: Clearance in cynomolgus monkey at 10 mg/kg, iv. The format is ADME, organism-based, Macaca fascicularis. Further details: dose 10 mg/kg, route intravenous. Particulars: in vivo.
The nature of data set [4]: Volume of distribution in cynomolgus monkey at 10 mg/kg, iv. As to conditions: in vivo. The format is ADME, organism-based, Macaca fascicularis. Further details: dose 10 mg/kg, route intravenous.
A short description of data set [5]: Half life in cynomolgus monkey at 10 mg/kg, iv. The format is ADME, organism-based, Macaca fascicularis. Further details: dose 10 mg/kg, route intravenous. Particulars: in vivo.
The nature of data set [6]: Cmax in cynomolgus monkey at 10 mg/kg, po. Further details: dose 10 mg/kg, route oral. It counts as ADME, organism-based, Macaca fascicularis. Particulars: in vivo.
Data set [7] can be described thus: Tmax in cynomolgus monkey at 10 mg/kg, po. It counts as ADME, organism-based, Macaca fascicularis. Further details: dose 10 mg/kg, route oral. Particulars: in vivo.
Data set [8] in a line: AUC in cynomolgus monkey at 10 mg/kg, po. The format is ADME, organism-based, Macaca fascicularis. On the set-up: dose 10 mg/kg, route oral. Particulars: plasma.
Data set [9] is described as follows: Oral bioavailability in cynomolgus monkey at 10 mg/kg. It counts as ADME, organism-based, Macaca fascicularis. Particulars: in vivo.
The nature of data set [10]: Lipophilicity, log D at pH 7.4. It counts as physicochemical. Particulars: buffer.
The nature of data set [11]: Clearance in Sprague-Dawley rat at 10 mg/kg, iv. It counts as ADME, organism-based. Further details: dose 10 mg/kg, route intravenous. Particulars: in vivo.
The nature of data set [12]: Volume of distribution in Sprague-Dawley rat at 10 mg/kg, iv. The format is ADME, organism-based. Further details: dose 10 mg/kg, route intravenous. As to conditions: in vivo.
A short description of data set [13]: Half life in Sprague-Dawley rat at 10 mg/kg, iv. It counts as ADME, organism-based. Further details: dose 10 mg/kg, route intravenous. Particulars: in vivo.
Data set [14] can be described thus: Cmax in Sprague-Dawley rat at 10 mg/kg, po or 10 mg/kg, iv. It counts as ADME, organism-based. As to conditions: in vivo.
The nature of data set [15]: Tmax in Sprague-Dawley rat at 10 mg/kg, po or 10 mg/kg, iv. Particulars: in vivo. It counts as ADME, organism-based.
Data set [16] in a line: Dissociation constant, pKa of the compound. It counts as physicochemical.

The term AUC denotes concentration integrated over time. Broadly, the bioavailability is the share of a dose that reaches the circulation, judged against a reference dose that is usually intravenous. By clearance is commonly meant a measure of how efficiently the substance is removed, as volume per time. For orientation: Vd means the apparent volume that relates the amount in the body to the concentration in plasma or blood. What is called half-life is how long it takes for the measured level to halve. A word on the Cmax: it is the highest concentration seen after dosing. One may read the Tmax as the time from dosing to the highest level. As a reminder, the logD is lipophilicity at a set pH, counting ionised and neutral species. For `O=C(O)CCCN[C@@H](Cn1c(=O)c(-c2ccccc2Cl)cn(Cc2c(F)cccc2C(F)(F)F)c1=O)c1ccccc1`, the figures for the AUC in data set [1] and in [8] were 0.132 µg·h/mL and 11.1 µg·h/mL, respectively. Further, the bioavailability was determined as 3% in data set [2] and 52.7% in data set [9]. Further, the clearance in data set [3] came out at 0.474 L/h/kg; in data set [11], 2.26 L/h/kg. The values for the Vd in [4] and in data set [12] were 4.9 L/kg and 1.3 L/kg, respectively. The half-life was 450 min in data set [5] and 24 min in data set [13]. Further, the Cmax in [6] is 7.87 µg/mL; in [14] it was 0.149 µg/mL. In addition, the Tmax came to 37.8 min in data set [7] and 15 min in data set [15]. The same molecule came in with a logD in data set [10] of 2.1.

The pKa is the negative logarithm of the acid dissociation constant. In the case of `COc1cccc(-c2cn(Cc3c(F)cccc3C(F)(F)F)c(=O)n(C[C@H](NCCCC(=O)O)c3ccccc3)c2=O)c1F`, the AUC in data set [1] was 0.0633 µg·h/mL; in [8] it was 1.9 µg·h/mL. Further, the bioavailability in data set [2] was found to be 2.4%; in data set [9] it was 22.6%. Moreover, the clearance in data set [3] is 1.25 L/h/kg; in [11], 3.85 L/h/kg. The Vd in data set [4] amounted to 1.8 L/kg; in data set [12], 1.7 L/kg. Also, the half-life was 60 min in [5] and 18 min in [13]. For the same molecule, the Cmax in [6] was 2.04 µg/mL; in data set [14], 0.077 µg/mL. Also, the Tmax was determined as 30 min in data set [7] and 15 min in data set [15]. Further, the pKa in [16] was determined as 4.16. The molecule also had a log distribution coefficient (logD) in data set [10] of 1.8.
